The values below come from paper PMC2228302, “Crystal structure of Leishmania tarentolae hypoxanthine-guanine phosphoribosyltransferase” (BMC Structural Biology, 2007).

One assay addresses Leishmania HGPRT (Leishmania tarentolae, UniProt Q9NJI5, D188E/G191E/H176R/L189Y/T185D/V183G/V192L/W184M). The assay can be described thus: biochemical. The protocol: The HGPRT enzyme inhibition assay was performed for 1 min in a 1 ml reaction volume containing 100 mM Tris-HCl, 5 mM MgSO4, 1 mM PRPP, 0.04 mM guanine at pH 7.4 [41]. An extinction coefficient of 4.2 was used.

Assay [1] concerns the target Leishmania tarentolae hypoxanthine-guanine phosphoribosyltransferase (Leishmania tarentolae). The assay can be described thus: crystal structure; co-crystallized with GMP in 19% PEG 4000, 20.6% isopropanol, 5% glycerol, 95 mM tri-sodium citrate, pH 5.6; space group P212121; two monomers (chains A and B) in the asymmetric unit; 2.1 Å.
[2] abbreviates: recombinant L. tarentolae HGPRT, 1 min, 1 mM PRPP, 0.04 mM guanine, pH 7.4, six inhibitor concentrations in triplicate, read-out: IC50.
The mark [3] stands for this setting: IC50, recombinant L. tarentolae HGPRT, 1 min, 1 mM PRPP, 0.04 mM guanine, pH 7.4, six inhibitor concentrations in triplicate.

pIC50: −log10 of the molar value. Where two headings read alike, the source gives them in different places.

A word on the pIC50: it is the IC50 on a negative log10 scale, so that one unit is a factor of ten. In the case of `O=c1[nH]c(=O)n([C@H]2C[C@H](O)[C@@H](CO)O2)cc1Br` [5-bromodeoxiuridine], the pIC50 on Leishmania HGPRT (setting [2]) was 3.46.
`Cc1cnc(=O)[nH]c1N` [5-metilcitosine]: the pIC50 at Leishmania HGPRT (setting [2]) is 3.39.
Consider `Nc1nc(Cl)c2[nH]cnc2n1` [6-cloroguanine], for which the negative logarithm of the IC50 (pIC50) at Leishmania HGPRT (setting [2]) was 3.08.
Consider `Nc1nc2c(nc(N)n2[C@@H]2O[C@H](CO)[C@@H](O)[C@H]2O)c(=O)[nH]1` [8-aminoguanosine], for which, on Leishmania HGPRT (setting [3]), the pIC50 is 4.03.
On to `O=C(O)c1cc(=O)[nH]c(=O)[nH]1` [Orotic acid], for which, on Leishmania HGPRT (setting [3]), the negative logarithm of the IC50 (pIC50) was 3.36.
`Oc1ncnc2[nH]ncc12` [allopurinol]: the pIC50 at Leishmania HGPRT (IC50, Leishmania HGPRT, approximate value stated in text) was about 3.70; on Leishmania HGPRT (setting [3]) it was 3.71.
Regarding `CO/N=C(\C(=O)N[C@@H]1C(=O)N2C(C(=O)O)=C(COC(C)=O)CS[C@H]12)c1csc(N)n1` [cefotaxime], at Leishmania HGPRT (setting [3]), the pIC50 is 3.74.
As for `O=c1[nH]cnc2c([C@@H]3O[C@H](CO)[C@@H](O)[C@H]3O)n[nH]c12` [formicin B], the negative-log IC50 (pIC50) at Leishmania HGPRT (setting [2]) was 3.59.
`Nc1ncnc2c1ccn2[C@@H]1O[C@H](CO)[C@@H](O)[C@H]1O` [tubercidine]: the negative-log IC50 (pIC50) at Leishmania HGPRT (setting [2]) is 3.27.
What is called stoichiometry N is a count of units in the complex or per binding partner. As to “Leishmania tarentolae hypoxanthine-guanine phosphoribosyltransferase (enzyme)”, in assay [1], the stoichiometry N is 2.
On to azaadenine, for which the pIC50 on Leishmania HGPRT (setting [2]) was 3.68.
